Assay results: patent US10588317B2, “Isoxazoline-substituted benzamides and analogues as insecticides” (priority 2015, dated 2020)

Tests used:
Type in all cases: in vivo
Euschistus heros = Euschistus heros (neotropical brown stink bug), sprayed soybean leaves; details: 120 h, application rate 200 ppm, N2 nymphs, 5 days after infestation, read-out: effect in at least one of the two categories (mortality or growth inhibition)
Procedure, shortened: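 Scored 5 days post-infestation versus untreated controls, for both mortality and growth inhibition: N2 nymphs placed on agar-mounted soybean leaves previously sprayed at 200 ppm with aqueous test solutions from DMSO stocks and left to dry.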

Tetranychus urticae = Tetranychus urticae (two-spotted spider mite): feeding/contact activity; details: 192 h, application rate 200 ppm, mixed population (mobile stages), 8 days after infestation, read-out: mortality
Method: Bean leaf discs on agar in 24-well microtiter plates were sprayed with aqueous test solutions prepared from 10'000 ppm DMSO stock solutions. After drying the leaf discs were infested with a mite population of mixed ages. The samples were assessed for mortality on mixed population (mobile stages) 8 days after infestation.

Diabrotica balteata = Diabrotica balteata (corn root worm), sprayed maize sprouts; details: 96 h, application rate 200 ppm, L2 larvae, 4 days after infestation, read-out: effect in at least one of the two categories (mortality or growth inhibition)
Procedure, shortened: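 Read-out at 4 days post-infestation: mortality and growth inhibition relative to untreated samples. Test solutions (200 ppm, from DMSO stocks) were sprayed onto agar-held maize sprouts, which after drying received 6–10 L2 larvae per well.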

Spodoptera littoralis [1] = test: Spodoptera littoralis (Egyptian cotton leaf worm), sprayed cotton leaf discs; details: foliar, 72 h, application rate 200 ppm, L1 larvae, 3 days after infestation, read-out: control (mortality, anti-feeding effect, growth inhibition)
Procedure, shortened: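 Five first-instar larvae placed on dried cotton leaf discs (on agar) previously sprayed with aqueous dilutions of 10'000 ppm DMSO stocks. Scored at 3 days against untreated discs for mortality, feeding inhibition and growth inhibition; any category above untreated counts as control.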

Thrips tabaci = Thrips tabaci (onion thrips): feeding/contact activity; details: 144 h, application rate 200 ppm, Thrips population of mixed ages, 6 days after infestation, read-out: mortality
Method: Sunflower leaf discs were placed on agar in 24-well microtiter plates and sprayed with aqueous test solutions prepared from 10'000 ppm DMSO stock solutions. After drying the leaf discs were infested with a Thrips population of mixed ages. The samples were assessed for mortality 6 days after infestation.

Plutella xylostella = Plutella xylostella (diamond back moth), artificial diet; details: 120 h, application rate 200 ppm, L2 larvae, 5 days after infestation, read-out: effect in at least one of the two categories (mortality or growth inhibition)
Procedure, shortened: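 L2 larvae (10-15 per well) fed on compound-treated, dried artificial diet; test solutions diluted in water from 10'000 ppm DMSO stocks. Readout 5 days post-infestation as mortality or growth inhibition versus untreated diet, with at least 80% effect at 200 ppm as threshold.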

Spodoptera littoralis [2] = test: Spodoptera littoralis (Egyptian cotton leaf worm), uptake by lettuce roots from agar; details: 144 h, read-out: effect in at least one of the three categories (mortality, anti-feeding, or growth inhibition); for percent effect (mortality, anti-feeding or growth inhibition) at 12.5 ppm: test rate 12.5 ppm, eggs, 6 days after infestation
Description: Test compounds were applied by pipette from 10'000 ppm DMSO stock solutions into 24-well plates and mixed with agar. Lettuce seeds were placed onto the agar and the multi well plate was closed by another plate which contained also agar. After 7 days the compound was absorbed by the roots and the lettuce grew into the lid plate. The lettuce leaves were then cut off into the lid plate. Spodoptera eggs were pipetted through a plastic stencil onto a humid gel blotting paper and the lid plate was closed with it. The samples were assessed for mortality, anti-feedant effect and growth inhibition in comparison to untreated samples 6 days after infestation.
The following compounds gave an effect of at least 80% in at least one of the three categories (mortality, anti-feeding, or growth inhibition) at a test rate of 12.5 ppm: […]

Myzus persicae = Myzus persicae (green peach aphid): feeding/contact activity; details: 144 h, application rate 200 ppm, aphid population of mixed ages, 6 days after infestation, read-out: mortality
Method: Sunflower leaf discs were placed onto agar in a 24-well microtiter plate and sprayed with aqueous test solutions prepared from 10'000 ppm DMSO stock solutions. After drying, the leaf discs were infested with an aphid population of mixed ages. The samples were assessed for mortality 6 days after infestation.

CNS(=O)(=O)N1CC(NC(=O)c2ccc(C3=NO[C@@](c4cc(Cl)c(F)c(Cl)c4)(C(F)(F)F)C3)cc2C)CO1 (stereo partly drawn) [Compound A70]
≥ 80%: percent effect (mortality or growth inhibition) at 200 ppm (Euschistus heros) | mortality at 200 ppm (Tetranychus urticae) | percent effect (mortality or growth inhibition) at 200 ppm (Diabrotica balteata) | mortality at 200 ppm (Spodoptera littoralis [1]) | mortality at 200 ppm (Thrips tabaci) | percent effect (mortality or growth inhibition) at 200 ppm (Plutella xylostella) | percent control (mortality, anti-feedant effect or growth inhibition) at 12.5 ppm (Spodoptera littoralis [2]) | mortality at 200 ppm (Myzus persicae)

Cc1cc(C2=NOC(c3cc(Cl)c(Cl)c(Cl)c3)(C(F)(F)F)C2)ccc1C(=O)NC1CON(S(C)(=O)=O)C1 (stereo not drawn) [Compound A61]
≥ 80%: percent effect (mortality or growth inhibition) at 200 ppm (Euschistus heros) | mortality at 200 ppm (Tetranychus urticae) | percent effect (mortality or growth inhibition) at 200 ppm (Diabrotica balteata) | mortality at 200 ppm (Spodoptera littoralis [1]) | mortality at 200 ppm (Thrips tabaci) | percent effect (mortality or growth inhibition) at 200 ppm (Plutella xylostella) | percent control (mortality, anti-feedant effect or growth inhibition) at 12.5 ppm (Spodoptera littoralis [2]) | mortality at 200 ppm (Myzus persicae)

CS(=O)(=O)N1C[C@@H](NC(=O)c2ccc(C3=NO[C@@](c4cc(Cl)c(Cl)c(Cl)c4)(C(F)(F)F)C3)cc2Cl)CO1 [Compound A145]
≥ 80%: percent effect (mortality or growth inhibition) at 200 ppm (Euschistus heros) | mortality at 200 ppm (Tetranychus urticae) | percent effect (mortality or growth inhibition) at 200 ppm (Diabrotica balteata) | mortality at 200 ppm (Spodoptera littoralis [1]) | mortality at 200 ppm (Thrips tabaci) | percent effect (mortality or growth inhibition) at 200 ppm (Plutella xylostella) | percent control (mortality, anti-feedant effect or growth inhibition) at 12.5 ppm (Spodoptera littoralis [2]) | mortality at 200 ppm (Myzus persicae)

Cc1cc(C2=NOC(c3cc(Cl)cc(Cl)c3)(C(F)(F)F)C2)ccc1C(=O)NC1CON(S(C)(=O)=O)C1 (stereo not drawn) [Compound A33, 4-[5-(3,5-dichlorophenyl)-5-(trifluoromethyl)-4H-isoxazol-3-yl]-2-methyl-N-(2-methylsulfonylisoxazolidin-4-yl)benzamide]
≥ 80%: percent effect (mortality or growth inhibition) at 200 ppm (Euschistus heros) | mortality at 200 ppm (Tetranychus urticae) | percent effect (mortality or growth inhibition) at 200 ppm (Diabrotica balteata) | mortality at 200 ppm (Spodoptera littoralis [1]) | mortality at 200 ppm (Thrips tabaci) | percent effect (mortality or growth inhibition) at 200 ppm (Plutella xylostella) | percent control (mortality, anti-feedant effect or growth inhibition) at 12.5 ppm (Spodoptera littoralis [2]) | mortality at 200 ppm (Myzus persicae)

CCNS(=O)(=O)N1C[C@@H](NC(=O)c2ccc(C3=NO[C@@](c4cc(Cl)c(Cl)c(Cl)c4)(C(F)(F)F)C3)cc2C)CO1 [Compound A136, N-[(4R)-2-(ethylsulfamoyl)isoxazolidin-4-yl]-2-methyl-4-[(5S)-5-(3,4,5-trichlorophenyl)-5-(trifluoromethyl)-4H-isoxazol-3-yl]benzamide]
≥ 80%: percent effect (mortality or growth inhibition) at 200 ppm (Euschistus heros) | mortality at 200 ppm (Tetranychus urticae) | percent effect (mortality or growth inhibition) at 200 ppm (Diabrotica balteata) | mortality at 200 ppm (Spodoptera littoralis [1]) | mortality at 200 ppm (Thrips tabaci) | percent effect (mortality or growth inhibition) at 200 ppm (Plutella xylostella) | percent control (mortality, anti-feedant effect or growth inhibition) at 12.5 ppm (Spodoptera littoralis [2]) | mortality at 200 ppm (Myzus persicae)

Cc1cc(C2=NOC(c3cc(Cl)cc(Cl)c3)(C(F)(F)Cl)C2)ccc1C(=O)NC1CON(S(C)(=O)=O)C1 (stereo not drawn) [Compound A64]
≥ 80%: percent effect (mortality or growth inhibition) at 200 ppm (Euschistus heros) | mortality at 200 ppm (Tetranychus urticae) | percent effect (mortality or growth inhibition) at 200 ppm (Diabrotica balteata) | mortality at 200 ppm (Spodoptera littoralis [1]) | mortality at 200 ppm (Thrips tabaci) | percent effect (mortality or growth inhibition) at 200 ppm (Plutella xylostella) | percent effect (mortality, anti-feeding or growth inhibition) at 12.5 ppm (Spodoptera littoralis [2]) | mortality at 200 ppm (Myzus persicae)

O=C(NC1CON(S(=O)(=O)C2CC2)C1)c1ccc(C2=NO[C@@](c3cc(Cl)c(Cl)c(Cl)c3)(C(F)(F)F)C2)cc1Cl (stereo partly drawn) [Compound A30, 2-chloro-N-(2-cyclopropylsulfonylisoxazolidin-4-yl)-4-[(5S)-5-(3,4,5-trichlorophenyl)-5-(trifluoromethyl)-4H-isoxazol-3-yl]benzamide]
≥ 80%: mortality at 200 ppm (Tetranychus urticae) | percent effect (mortality or growth inhibition) at 200 ppm (Diabrotica balteata) | mortality at 200 ppm (Spodoptera littoralis [1]) | mortality at 200 ppm (Thrips tabaci) | percent effect (mortality or growth inhibition) at 200 ppm (Plutella xylostella) | percent control (mortality, anti-feedant effect or growth inhibition) at 12.5 ppm (Spodoptera littoralis [2]) | mortality at 200 ppm (Myzus persicae)

Cc1cc(C2=NO[C@@](c3cc(Cl)c(F)c(Cl)c3)(C(F)(F)F)C2)ccc1C(=O)NC1CON(S(C)(=O)=O)C1 (stereo partly drawn) [Compound A1, 4-[(5S)-5-(3,5-dichloro-4-fluoro-phenyl)-5-(trifluoromethyl)-4H-isoxazol-3-yl]-2-methyl-N-(2-methylsulfonylisoxazolidin-4-yl)benzamide]
≥ 80%: mortality at 200 ppm (Tetranychus urticae) | percent effect (mortality or growth inhibition) at 200 ppm (Diabrotica balteata) | mortality at 200 ppm (Spodoptera littoralis [1]) | mortality at 200 ppm (Thrips tabaci) | percent effect (mortality or growth inhibition) at 200 ppm (Plutella xylostella) | percent control (mortality, anti-feedant effect or growth inhibition) at 12.5 ppm (Spodoptera littoralis [2]) | mortality at 200 ppm (Myzus persicae)

CN(C)S(=O)(=O)N1CC(NC(=O)c2ccc(C3=NO[C@@](c4cc(Cl)c(F)c(Cl)c4)(C(F)(F)F)C3)cc2Cl)CO1 (stereo partly drawn) [Compound A21]
≥ 80%: mortality at 200 ppm (Tetranychus urticae) | percent effect (mortality or growth inhibition) at 200 ppm (Diabrotica balteata) | mortality at 200 ppm (Spodoptera littoralis [1]) | mortality at 200 ppm (Thrips tabaci) | percent effect (mortality or growth inhibition) at 200 ppm (Plutella xylostella) | percent control (mortality, anti-feedant effect or growth inhibition) at 12.5 ppm (Spodoptera littoralis [2]) | mortality at 200 ppm (Myzus persicae)

Cc1cc(C2=NO[C@@](c3cc(Br)cc(C(F)(F)F)c3)(C(F)(F)F)C2)ccc1C(=O)NC1CON(S(=O)(=O)N(C)C)C1 (stereo partly drawn) [Compound A23]
≥ 80%: mortality at 200 ppm (Tetranychus urticae) | percent effect (mortality or growth inhibition) at 200 ppm (Diabrotica balteata) | mortality at 200 ppm (Spodoptera littoralis [1]) | mortality at 200 ppm (Thrips tabaci) | percent effect (mortality or growth inhibition) at 200 ppm (Plutella xylostella) | percent effect (mortality, anti-feeding or growth inhibition) at 12.5 ppm (Spodoptera littoralis [2]) | mortality at 200 ppm (Myzus persicae)

Cc1cc(C2=NO[C@@](c3cc(Br)cc(C(F)(F)F)c3)(C(F)(F)F)C2)ccc1C(=O)NC1CON(S(C)(=O)=O)C1 (stereo partly drawn) [Compound A16]
≥ 80%: mortality at 200 ppm (Tetranychus urticae) | percent effect (mortality or growth inhibition) at 200 ppm (Diabrotica balteata) | mortality at 200 ppm (Spodoptera littoralis [1]) | mortality at 200 ppm (Thrips tabaci) | percent effect (mortality or growth inhibition) at 200 ppm (Plutella xylostella) | percent effect (mortality, anti-feeding or growth inhibition) at 12.5 ppm (Spodoptera littoralis [2]) | mortality at 200 ppm (Myzus persicae)

CCS(=O)(=O)N1CC(NC(=O)c2ccc(C3=NO[C@@](c4cc(Cl)c(F)c(Cl)c4)(C(F)(F)F)C3)cc2Cl)CO1 (stereo partly drawn) [Compound A25, 2-chloro-4-[(5S)-5-(3,5-dichloro-4-fluoro-phenyl)-5-(trifluoromethyl)-4H-isoxazol-3-yl]-N-(2-ethylsulfonylisoxazolidin-4-yl)benzamide]
≥ 80%: mortality at 200 ppm (Tetranychus urticae) | percent effect (mortality or growth inhibition) at 200 ppm (Diabrotica balteata) | mortality at 200 ppm (Spodoptera littoralis [1]) | mortality at 200 ppm (Thrips tabaci) | percent effect (mortality or growth inhibition) at 200 ppm (Plutella xylostella) | percent control (mortality, anti-feedant effect or growth inhibition) at 12.5 ppm (Spodoptera littoralis [2]) | mortality at 200 ppm (Myzus persicae)
